According to PubChem BioAssay AID1421 (Emory University Molecular Libraries Screening Center, 2008):
Active and inactive are the calls of the source. The rule behind the calls is not given here.

What follows are compounds tested against Prostaglandin E2 receptor EP2 subtype (Homo sapiens) (UniProt P43116) (assay: compounds shifting PGE2 potency at EP2 – cell-based, human EP2, PGE2 EC50 shift, dose response (AID 1421)). Settings: EP2-expressing cells, PGE2 EC50 shift by compound.
Chain of Prostaglandin E2 receptor EP2 subtype (Homo sapiens) (P43116 whole entry, looked up): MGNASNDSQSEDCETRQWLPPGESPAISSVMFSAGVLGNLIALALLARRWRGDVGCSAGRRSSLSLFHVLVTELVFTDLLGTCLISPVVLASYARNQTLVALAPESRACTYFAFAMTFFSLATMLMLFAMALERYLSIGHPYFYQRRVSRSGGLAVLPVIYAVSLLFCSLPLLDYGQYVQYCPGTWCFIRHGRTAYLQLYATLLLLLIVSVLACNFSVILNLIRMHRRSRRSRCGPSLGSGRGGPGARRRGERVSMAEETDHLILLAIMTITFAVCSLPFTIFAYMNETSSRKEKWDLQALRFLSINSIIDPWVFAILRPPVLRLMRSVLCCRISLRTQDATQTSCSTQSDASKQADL

| SMILES | outcome |
| --- | --- |
| CCCSc1ncnc2c1oc1ccccc12 | active |
| Cc1ccc(NC2=C(C(=O)c3ccccc3)N(C)S(=O)(=O)c3ccccc32)cc1 | active |
| CCC(=O)N(CCC(Cc1ccccc1)c1ccco1)Cc1ccco1 (stereo unspecified) | active |
| Clc1ccc(COn2c(-c3ccccc3)nc3ccccc32)cc1 | active |

Same assay, conditions: EP2-expressing cells, PGE2 EC50 shift by compound; measured here: PGE2 EC50 at 6.7 uM compound

| SMILES | PGE2 EC50 with compound |
| --- | --- |
| O=C(c1cccs1)c1cn(Cc2ccccc2Cl)c2ccccc12 | 2.63 nM |
| CCCOc1ccc(/C=N/Nc2ccc(C(=O)O)cc2)c(OCCC)c1 | 0.87 nM |
| CCCCN1C=C(C(=O)OC)C(c2ccccc2Cl)C(C(=O)OC)=C1 | 2.72 nM |
| CCC(c1nnnn1C1CCCC1)N(Cc1cccs1)Cc1cc2cc(C)ccc2[nH]c1=O (stereo unspecified) | 0.33 nM |
| Cc1ccc(C2CC2c2n[nH]c(=S)n2-c2ccc(C)cc2)cc1 (stereo unspecified) | 1.12 nM |
| CCOC(=O)c1c(CC(C)C)csc1NC(=O)CCl | 1.13 nM |
| CCc1ccc2nc(-c3cccc(C)c3)nc(SCC(=O)NCC3CCCO3)c2c1 (stereo unspecified) | 2.64 nM |
| CCCSc1ncnc2c1oc1ccccc12 | 0.69 nM |
| CSc1nc2nccc(-c3ccc(-c4ccccc4)cc3)n2n1 | 0.87 nM |
| COc1ccc(C)cc1-n1c(=O)c2ccccc2c2ccccc2c1=O | 0.71 nM |
| C=C[C@@](C)(O)CCC1C(=C)C[C@H](O)C2C(C)(C)CCCC12C (stereo partly specified) | 2.91 nM |
| Cc1ccc(-c2cc3ccccc3nc2N2CCOCC2)cc1 | 1.45 nM |
| Nc1c(C(=O)NCc2ccco2)c2nc3ccccc3nc2n1CCc1ccccc1 | 1.78 nM |
| CCOC(=O)CNC(=O)c1ccc2c(c1)OCCO2 | 2.56 nM |
| Cn1nc(C(F)(F)F)c(/C=N/OC(=O)c2ccccc2)c1Sc1ccc(Cl)cc1 | 1.31 nM |
| Cc1cc(SCC(=O)NCCC2=CCCCC2)nc2ccccc12 | 2.66 nM |
| CC(=O)Oc1ccc2ccccc2c1C(NC(=O)Cc1ccccc1)c1ccccc1 (stereo unspecified) | 1.1 nM |
| COC(=O)c1c(NC(=O)CSc2nnc(-c3ccco3)n2Cc2ccccc2)sc(C)c1C | 0.85 nM |
| c1ccn(-c2ncnc3sc4c(c23)CCCC4)c1 | 1.45 nM |
| CCCCOC(=O)CSc1nc(N)c(C#N)c(-c2ccc(OCC)cc2)c1C#N | 1.39 nM |
| Cc1nc2c3cc(F)ccc3n(Cc3ccccc3)c2s1 | 0.57 nM |

| SMILES | PGE2 EC50 with compound |
| --- | --- |
| COc1ccc(C(=O)Nc2cc(C)nn2-c2nc3ccccc3[nH]2)c(OC)c1 | 0.91 nM |
| Cc1cccc(-n2c(CCc3ccccc3)nnc2SCC(=O)c2ccccc2)c1 | 1.16 nM |
| Cc1ccc(NC2=C(C(=O)c3ccccc3)N(C)S(=O)(=O)c3ccccc32)cc1 | 1.28 nM |
| COc1ccc(Nc2nc(-c3cc4cccc(OC)c4oc3=O)cs2)cc1 | 1.29 nM |
| Cc1noc(C)c1CSc1ncnc2sc(C)c(C)c12 | 1.38 nM |
| CCCCCCCCCc1ccc(O)cc1 | 0.74 nM |
| CCC(=O)N(CCC(Cc1ccccc1)c1ccco1)Cc1ccco1 (stereo unspecified) | 0.86 nM |
| O=S1(=O)N=C(N(CCO)/N=C/C=C/c2ccccc2)c2ccccc21 | 2.08 nM |
| CCSc1ncnc2sc3c(c12)CCC3 | 0.94 nM |
| O=c1cc(N2CCCCC2)c(-c2ccccc2)nn1Cc1ccc(F)cc1 | 2.5 nM |
| Clc1ccc(COn2c(-c3ccccc3)nc3ccccc32)cc1 | 2.65 nM |
| C#CCSc1nc(Cc2ccc(Cl)cc2)nc2ccccc12 | 1.22 nM |
| COC(=O)CC1C(C)(C)C(OC(C)=O)[C@@H]2[C@@H](OC(C)=O)[C@]34O[C@@]2(O)[C@]1(C)C3CC[C@]1(C)C4=CC(=O)O[C@H]1c1ccoc1 (stereo partly specified) | 0.74 nM |
| O=C(CN1CCCCCC1)Nc1ccccc1Oc1ccccc1 | 0.96 nM |
| CCOC(=O)C1=C(C)OC(N)=C(C#N)C1c1cc(C)sc1C (stereo unspecified) | 1.3 nM |
| O=C(CSc1ncnc2c1oc1ccccc12)Nc1cccc(F)c1 | 3.15 nM |
| CC1=C(/C=C/C(C)=C/C=C/C(C)=C/C(=O)O)C(C)(C)CCC1 | 1.19 nM |
| Cn1c(/C=C/N(Cc2ccccc2)c2ccccc2)c([N+](=O)[O-])c(=O)n(C)c1=O | 1.21 nM |
| Cc1ccccc1Cn1c(-c2cncs2)nc2ccccc21 | 2.57 nM |
| Cc1nc2ccccn2c1C(=O)CSc1ccc(Cl)cc1Cl | 1.47 nM |
| C=CCC(NCc1ccccc1)c1ccc(Cl)cc1 (stereo unspecified) | 1.14 nM |
